Measurements published in patent US9920017B2, “Heterocyclic compounds as pesticides” (BAYER CROPSCIENCE AKTIENGESELLSCHAFT, priority 2014, dated 2018).
Where two headings read alike, the source gives them in different places.

Experiments:
Cooperia curticei = Cooperia curticei test; type: in vivo; details: 20 ppm; nematode larvae; after 5 days
Protocol: Solvent: dimethyl sulphoxide
To produce an appropriate active ingredient formulation, 10 mg of active ingredient are mixed with 0.5 ml of dimethyl sulphoxide and the concentrate is diluted with “Ringer's solution” to the desired concentration.
Vessels containing the active ingredient formulation of the desired concentration are populated with about 40 nematode larvae (Cooperia curticei).
After 5 days, the kill in % is determined 100% means that all the larvae have been killed; 0% means that none of the larvae have been killed.

Meloidogyne incognita = Meloidogyne incognita test (MELGIN); type: in vivo; details: 20 ppm; lettuce; after 14 days
Protocol: Meloidogyne incognita Test (MELGIN) Solvent: 125.0 parts by weight of acetone To produce a suitable active ingredient formulation, 1 part by weight of active ingredient is mixed with the stated amount of solvent and the concentrate is diluted with water to the desired concentration. Vessels are filled with sand, active ingredient solution, an egg/larvae suspension of the southern root-knot nematode (Meloidogyne incognita) and lettuce seeds. The lettuce seeds germinate and the plants develop. The galls develop on the roots. After 14 days, the nematicidal efficacy in % is determined by the formation of galls. 100% means that no galls were found; 0% means that the number of galls on the treated plants corresponds to the untreated control.

[1] = Determination of log P values by HPLC (reversed-phase C18); type: physicochemical; details: for chromatographic logP: reversed-phase C18 HPLC column
Protocol: 1) Description of Method for Determination of the Log P Values ([…]) The log P values given in the table were determined in accordance with EEC Directive 79/831 Annex V.A8 by HPLC (High Performance Liquid Chromatography) using a reversed-phase column (C 18). Temperature: 55° C. […] Gradient: from 10% eluent A/90% eluent B to 95% eluent A/5% eluent B in 4.25 min. Calibration was effected with unbranched alkan-2-ones (having 3 to 16 carbon atoms) with known log P values (log P values determined on the basis of the retention times by linear interpolation between two successive alkanones). The lambda max values were determined in the maxima of the chromatographic signals using the UV spectra from 200 nm to 400 nm.

[2] = HPLC, reversed-phase C18, 55° C., final compounds table
[3] = HPLC-MS, preparation examples, read-out: log P (neutral)
[4] = N-[1-aryl-1H-1,2,4-triazol-3-yl]benzamides, formula (1-9)
[5] = compounds of formula (IIa-1), R3 hydrogen
[6] = pH 3.4, HPLC-MS, preparation examples, read-out: log P
[7] = HPLC, reversed-phase C18, 55° C., final compounds table, read-out: log P neutral

SMILES | log P neutral [1, 2] | nematicidal efficacy (formation of galls) (Meloidogyne incognita) [%] | further results
O=C(Nc1ncn(-c2c(F)cccc2C(F)(F)F)n1)c1ccccc1C(F)(F)F [Compound I-1-26] | 2.25 | 100 | efficacy (kill) (Cooperia curticei): 90%
O=C(Nc1ncn(-c2c(F)cccc2F)n1)c1c(F)cccc1C(F)(F)F [Compound I-1-20] | 2.04 | 100 | efficacy (kill) (Cooperia curticei): 100%
O=C(Nc1ncn(-c2c(F)cccc2C(F)(F)F)n1)c1ccccc1Cl [Compound I-1-27] | 2.06 | 90 | –
Cc1ccccc1C(=O)Nc1ncn(-c2c(F)cccc2F)n1 [Compound I-1-14] | 1.72 | 100 | –
O=C(Nc1ncn(-c2ccccc2C(F)(F)F)n1)c1ccccc1C(F)(F)F [Compound I-1-8] | 2.24 | 100 | –
O=C(Nc1ncn(-c2c(F)cccc2F)n1)c1ccccc1[N+](=O)[O-] [Compound I-1-22] | 1.54 | 90 | –
O=C(Nc1ncn(-c2c(F)cccc2Br)n1)c1ccccc1Cl [Compound I-1-31] | 1.95 | 100 | –
O=C(Nc1ncn(-c2c(F)cccc2C(F)(F)F)n1)c1ccccc1I [Compound I-1-28, N-{1-[2-Fluoro-6-(trifluoromethyl)phenyl]-1H-1,2,4-triazol-3-yl}-2-iodobenzamide] | – | 100 | efficacy (kill) (Cooperia curticei): 80%; chromatographic logP [1, 3]: 2.21
CCc1ccccc1C(=O)Nc1ncn(-c2c(F)cccc2C(F)(F)F)n1 [Compound I-1-29] | 2.39 | 100 | –
O=C(Nc1ncn(-c2c(F)cccc2F)n1)c1ccccc1Cl [Compound I-1-13, 2-Chloro-N-[1-(2,6-difluorophenyl)-1H-1,2,4-triazol-3-yl]benzamide] | – | 100 | chromatographic logP [1, 3]: 1.73
O=C(Nc1ncn(-c2c(F)cccc2F)n1)c1ccccc1Br [Compound I-1-12] | 1.80 | 90 | –
CCc1ccccc1C(=O)Nc1ncn(-c2c(F)cccc2F)n1 [Compound I-1-15] | – | 100 | chromatographic logP [1, 3]: 2.05
Cc1cccc(Cl)c1-n1cnc(NC(=O)c2ccccc2C(F)(F)F)n1 [Compound I-1-40] | 2.26 | 90 | –
O=C(Nc1ncn(-c2c(F)cccc2Cl)n1)c1ccccc1I [Compound I-1-35] | 2.04 | 100 | –
O=C(Nc1ncn(-c2ccccc2Cl)n1)c1ccccc1Br [Compound I-1-4] | 1.97 | 90 | –
O=C(Nc1ncn(-c2c(Cl)cccc2Cl)n1)c1ccccc1 [1-9 R1=Cl R2m=6-Cl] | – | – | logP (neutral) [1, 4]: 1.8
Nc1ncn(-c2c(F)c(F)c(F)c(F)c2F)n1 [IIa-1 R1=F R2m=3,4,5,6-F4] | – | – | logP (neutral) [1, 5]: 1.31
Nc1ncn(-c2cccc(Cl)c2Cl)n1 [IIa-1 R1=Cl R2m=3-Cl] | – | – | logP (neutral) [1, 5]: 1.41

SMILES | log P neutral [1, 2] | nematicidal efficacy (formation of galls) (Meloidogyne incognita) [%] | further results
O=C(Nc1ncn(-c2ccccc2C(F)(F)F)n1)c1ccccc1 [1-9 R1=CF3 R2m=—] | – | – | logP (neutral) [1, 4]: 1.91
CCc1cccc(Cl)c1-n1cnc(NC(=O)c2ccccc2C(F)(F)F)n1 [Compound I-1-42] | 2.55 | 90 | –
COc1ccccc1-n1nnc(NC(=O)c2ccccc2C(F)(F)F)n1 [Compound I-2-1, N-[2-(2-Methoxyphenyl)-2H-tetrazol-5-yl]-2-(trifluoromethyl)benzamide] | – | – | chromatographic logP [1, 6]: 2.19; chromatographic logP [1, 7]: 2.19
Cc1cccc(F)c1-n1cnc(N)n1 [IIa-1 R1=F R2m=6-CH3] | – | – | logP (neutral) [1, 5]: 1.03
O=C(Nc1ncn(-c2c(F)cccc2F)n1)c1cc(F)ccc1C(F)(F)F [Compound I-1-19] | 2.09 | 100 | –
O=C(Nc1ncn(-c2c(Br)cccc2Br)n1)c1ccccc1 [1-9 R1=Br R2m=6-Br] | – | – | logP (neutral) [1, 4]: 2.00
O=C(Nc1ncn(-c2ncc(F)cc2F)n1)c1ccccc1C(F)(F)F [Compound I-1-89, N-[1-(3,5-Difluoropyridin-2-yl)-1H-1,2,4-triazol-3-yl]-2-(trifluoromethyl)benzamide] | – | 100 | chromatographic logP [1, 6]: 1.76; chromatographic logP [1, 7]: 1.76
Cc1cccc(F)c1-n1cnc(NC(=O)c2ccccc2)n1 [1-9 R1=F R2m=6-CH3] | – | – | logP (neutral) [1, 4]: 1.89
O=C(Nc1ncn(-c2ccccc2Cl)n1)c1c(F)cccc1F [Compound I-1-6] | 1.90 | – | –
COc1cccc(C)c1-n1cnc(NC(=O)c2ccccc2)n1 [1-9 R1=CH3 R2m=6-OCH3] | – | – | logP (neutral) [1, 4]: 1.76
O=C(Nc1ncn(-c2c(F)cccc2Br)n1)c1ccccc1I [Compound I-1-32] | 2.08 | 100 | –
O=C(Nc1ncn(-c2c(F)cccc2F)n1)c1ccccc1OC(F)(F)F [Compound I-1-17] | 2.14 | – | –
O=C(Nc1ncn(-c2ncc(F)cc2F)n1)c1ccccc1 [N-[1-(3,5-Difluoropyridin-2-yl)-1H-1,2,4-triazol-3-yl]benzamide] | – | – | chromatographic logP [1, 3]: 1.36
Cc1cccc(Cl)c1-n1cnc(N)n1 [IIa-1 R1=Cl R2m=6-CH3] | – | – | logP (neutral) [1, 5]: 1.12
Nc1ncn(-c2c(F)cccc2Br)n1 [1-(2-Bromo-6-fluorophenyl)-1H-1,2,4-triazol-3-amine] | – | – | chromatographic logP [1, 3]: 0.92
Nc1ncn(-c2ccccc2F)n1 [IIa-1 R1=F R2m=—] | – | – | logP (neutral) [1, 5]: 0.86
COc1ccccc1C(=O)Nc1ncn(-c2c(F)cccc2F)n1 [Compound I-1-16] | 1.91 | – | –

Now from value to compound, other results behind:

log P neutral [1, 2] | SMILES | nematicidal efficacy (formation of galls) (Meloidogyne incognita) [%] | further results
2.20 | O=C(Nc1ncn(-c2ccccc2I)n1)c1ccccc1C(F)(F)F [Compound I-1-75] | 90 | –
2.15 | O=C(Nc1ncn(-c2ccccc2Br)n1)c1ccccc1C(F)(F)F [Compound I-1-70] | 90 | efficacy (kill) (Cooperia curticei): 80%
2.21 | CCc1ccccc1C(=O)Nc1ncn(-c2c(F)ccc(F)c2F)n1 [Compound I-1-60] | 100 | –
2.00 | O=C(Nc1ncn(-c2c(F)cc(F)cc2F)n1)c1ccccc1I [Compound I-1-63] | 100 | efficacy (kill) (Cooperia curticei): 100%
2.23 | O=C(Nc1ncn(-c2c(F)c(F)cc(F)c2F)n1)c1ccccc1C(F)(F)F [Compound I-1-93] | 100 | –
1.85 | O=C(Nc1ncn(-c2c(F)cc(F)cc2F)n1)c1ccccc1Cl [Compound I-1-62] | 100 | –
2.46 | O=C(Nc1ncn(-c2c(Br)cc(F)cc2Br)n1)c1ccccc1C(F)(F)F [Compound I-1-87] | 90 | –
2.14 | CCc1ccccc1C(=O)Nc1ncn(-c2c(F)cc(F)cc2F)n1 [Compound I-1-64] | 100 | –
2.04 | O=C(Nc1ncn(-c2c(F)c(F)cc(F)c2F)n1)c1ccccc1Cl [Compound I-1-92] | 90 | –
2.09 | O=C(Nc1ncn(-c2c(Cl)cccc2Cl)n1)c1ccccc1Br [Compound I-1-45] | 100 | –
2.03 | O=C(Nc1ncn(-c2c(Cl)cccc2Cl)n1)c1ccccc1Cl [Compound I-1-46] | 90 | –
2.45 | CCc1ccccc1C(=O)Nc1ncn(-c2c(Br)cccc2Br)n1 [Compound I-1-81] | – | –
2.36 | CCc1cccc(Cl)c1-n1cnc(NC(=O)c2ccccc2Cl)n1 [Compound I-1-43] | – | –
2.43 | O=C(Nc1ncn(-c2c(F)c(F)c(F)c(F)c2F)n1)c1ccccc1I [Compound I-1-67] | 90 | –
2.49 | O=C(Nc1ncn(-c2cccc(Cl)c2Cl)n1)c1ccccc1C(F)(F)F [Compound I-1-51] | – | –
1.91 | O=C(Nc1ncn(-c2c(F)ccc(F)c2F)n1)c1ccccc1Cl [Compound I-1-58] | 100 | –
2.61 | CCc1ccccc1C(=O)Nc1ncn(-c2c(F)c(F)c(F)c(F)c2F)n1 [Compound I-1-68] | – | –
2.32 | O=C(Nc1ncn(-c2c(Br)cccc2Br)n1)c1ccccc1C(F)(F)F [Compound I-1-80] | 100 | –
